Values of other authors in US11005050B2, “Metal complexes” (Merck Patent GmbH, priority 2014, dated 2021).

Conditions: prior-art statement; for example in aromatic hydrocarbons or chlorobenzene

For c1cnc2c(c1)ccc1ccc[c]([Ir]([c]3cccc4ccc5cccnc5c34)[c]3cccc4ccc5cccnc5c34)c12 [tris(benzo[h]quinoline)iridium(III)], which “solubility in common organic solvents” value is on record?
Its value is “virtually insoluble”.
